Assay results taken from US9446127B2, “Compositions including androgen receptor degradation (ARD) enhancers and methods of prophylactic or therapeutic treatment of skin disorders and hair loss” (AndroScience Corporation, priority 2007, dated 2016).

Experiments:
[1] = molecular target: T1, wild type androgen receptor (GFPAR) (Homo sapiens, UniProt P10275); assay: Fluorescence microscopy of COS-1 cells transfected with GFPAR; assay type: cell-based; settings: COS-1, 5 micromolar
T1 construct: GFP (green fluorescent protein); expressed in transfected cells; host or cells: COS-1 (monkey kidney)
T1 sequence (P10275 1-920): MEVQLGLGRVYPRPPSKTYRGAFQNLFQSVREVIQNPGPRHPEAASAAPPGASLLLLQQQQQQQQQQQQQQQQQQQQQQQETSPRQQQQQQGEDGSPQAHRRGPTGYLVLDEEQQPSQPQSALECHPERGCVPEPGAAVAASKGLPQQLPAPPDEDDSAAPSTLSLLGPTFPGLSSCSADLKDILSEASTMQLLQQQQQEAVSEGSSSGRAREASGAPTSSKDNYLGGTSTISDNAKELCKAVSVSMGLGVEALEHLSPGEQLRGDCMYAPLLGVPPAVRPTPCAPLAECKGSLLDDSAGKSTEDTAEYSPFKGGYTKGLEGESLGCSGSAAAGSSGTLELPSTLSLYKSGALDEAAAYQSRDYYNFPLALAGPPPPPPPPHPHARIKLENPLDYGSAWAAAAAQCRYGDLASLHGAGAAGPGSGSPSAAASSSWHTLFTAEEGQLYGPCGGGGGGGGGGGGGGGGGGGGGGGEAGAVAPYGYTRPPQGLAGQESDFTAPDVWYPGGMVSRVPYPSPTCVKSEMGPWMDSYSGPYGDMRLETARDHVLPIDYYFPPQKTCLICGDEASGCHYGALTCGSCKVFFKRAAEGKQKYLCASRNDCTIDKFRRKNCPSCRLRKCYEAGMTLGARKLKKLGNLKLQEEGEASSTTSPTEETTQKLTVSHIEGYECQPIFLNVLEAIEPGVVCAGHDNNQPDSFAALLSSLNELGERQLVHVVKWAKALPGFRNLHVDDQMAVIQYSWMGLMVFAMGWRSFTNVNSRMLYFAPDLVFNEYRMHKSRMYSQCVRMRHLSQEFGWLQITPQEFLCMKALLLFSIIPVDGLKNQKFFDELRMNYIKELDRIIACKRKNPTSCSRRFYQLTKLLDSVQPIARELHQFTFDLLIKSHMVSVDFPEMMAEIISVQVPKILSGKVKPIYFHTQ
Method: Monkey kidney COS-1 cells were plated at a density of 3×10^4 cells per 0.5-milliliter volume onto alcohol-cleaned and sterilized cover slips placed in 35-millimeter suspension culture dishes containing Dulbecco's modified Eagle's (DME) medium containing 10% FBS. The cells were transfected with plasmids containing the wild type AR (GFPAR) or poly Q49 (plasmid GFPARQ49) mutant androgen receptor and green fluorescent protein (GFP) as a reporter. For each coverslip, 12.3 microliters SuperFect was added to 3.075 micrograms plasmid in 102.5 microliters DME medium (to give a 1:4 ratio of DNA to SuperFect reagent); the mixture was vortexed briefly, and the complex allowed to form over 15 minutes. Each mixture then received 897 microliters CD/DME and was mixed gently. The resulting 1-milliliter volumes were added to the dishes containing the coverslips (final plasmid concentration was […] per dish). Cells were allowed to incubate with the transfection solution for 5 hours, then the medium was changed to fresh 1.5 milliliters CD/DME medium with either vehicle (DMSO) only added or ASC-J9 (final concentration 5 micromolar). […] The coverslips were air-dried, mounted on slides with a glycerol-based mounting agent, and stored at 4 degrees Celsius if necessary prior to observation with fluorescence microscopy. […]

[2] = tested on: ER beta, PPARα, β or γ, RXRα, hsp70, actin; assay: Specificity Western blot in LNCaP cell lysates, other nuclear receptors or proteins; assay type: cell-based, human; settings: 1 or 5 micromolar, 24 hours, presence or absence of DHT
Method: (§1) Human prostate cancer LNCaP cells and T47D cells were plated at a density of 7×10^5 cells per 60 millimeter tissue culture dish in […] medium containing 10% FBS. The medium was changed to RPMI or DME medium containing 10% charcoal-stripped serum 24 hours later to deplete cellular androgens or estrogens. After another 24 hours, treatment with the test compounds began. The test dose of ASC-J9 was 1, and 5 and micromolar. LNCap cells also received dihydrotestosterone (DHT) (3 nanomolar). Control cells received a corresponding amount of the vehicle, dimethylsulfoxide (DMSO) (<0.04%) for an equivalent exposure time. Cells were incubated with ASC-J9 for 24 hours, and were lysed in 250 microliters of 1×SDS/PAGE loading buffer. Approximately 40 micrograms of total cellular protein was loaded in each lane of a pre-cast gel (NuPAGE, Invitrogen). Protein separation and transfer were performed following the manufacturer's instructions.
For the LNCaP cell lysates, androgen receptor (AR) protein was visualized by incubating the resultant membranes with an anti-AR antibody (BD-PharMingen), followed by chemiluminescence detection (ECL Plus, Amersham). […] The resultant protein signals were quantified using densitometry and NIH ImageJ software.

[3] = tested on: PPARγ, PPARβ, RXRα, ERα and Erβ, ERK, HSP70 and actin; assay: Specificity Western blot in T47D cell lysates, other receptor proteins; assay type: cell-based, human; settings: T47D cell lysates (FIG. 6)
Method: as §1

androgen receptor (AR) = molecular target: T2, androgen receptor (AR) (Homo sapiens, UniProt P10275); assay: Specificity Western blot in T47D cell lysates, AR; assay type: cell-based; settings: 5 or 10 micromolar, presence or absence of estrodial (E2)
T2 construct: Incubating T47D cells with ASC-J9 (5 or 10 micromolar) in the presence or absence of estrodial (E2) decreased the cellular concentrations of AR; endogenous in cells; host or cells: T47D
T2 sequence (P10275 1-920): T1 sequence (P10275 1-920)
Method: as §1

COc1ccc(C=CC(=O)C=C(O)C=Cc2ccc(OC)c(OC)c2)cc1OC [ASC-J9, 5-hydroxy-1,7-bis(3,4-dimethoxyphenyl)-1,4,6-heptatrien-3-one]
GFPAR fluorescence (expression of wild type AR) [1]: reduces (or degrades) the expression of AR
other tested nuclear receptors or proteins [2]: did not substantially affect
expression of other receptor proteins [3]: not affected
cellular concentration of AR (androgen receptor (AR)): decreased
